From patent US20190125753A1, “COMPOUNDS AND METHODS FOR INCREASING HEMATOPOIESIS” (University of Southern California, priority 2016, published 2019)

Columns and labels:
[1] = tested on: Human survivin promoter; experiment: Survivin/luciferase reporter (Survivin-Hek-293); format: cell-based; details: Homo sapiens; Survivin-Hek-293, 24 hours; read-out: survivin/luciferase reporter: did not inhibit up to
Protocol: Hek293 cells were stably transfected with plasmid that contains multiple TCF/LEF fragments in front of Luciferase gene. Wnt/β-catenin activity was determined from luciferase expression levels. […] Briefly, stably transfected Hek-293, STFI.1 (Wnt/β-catenin-driven luciferase) and Survivin-Hek-293 (1 Kb Human survivin promoter-driven luciferase) cells were maintained in DMEM, 10% FBS, Pen/Strep with 400 μg/mL G418 or 2 μg/mL puromycin, respectively. To check the activity of ICG-001, YH249, and YH250, the cells were split into white-opaque 96-well plates at 10,000 cells per well and allowed to attach overnight. For SuperTOPLASH, the inhibitors were added to the cells and pre-incubated for 1 hour prior to stimulation with 10 mM Li Cl for 24 hours. Luciferase activity was read using BrightGlo (Promnega) luciferase substrate. For survivin/luc, the inhibitors were added to the cells and incubated for 24 hours prior to readout. To calculate IC5o values, the resulting curve was fitted to a four-parameter logistic model (4PL) using GraphPad Prism 5 software.
B. Survivin Expression Level: The Secondary Screen.
An endogenous human survivin 1 kb promoter was inserted before a luciferase gene. […] R1 and R2 were diversified in this study. Percent inhibition of luciferase activity was calculated according to the following equations; % inhibition of STF 1.1 reporter activity=(I−RLU(10 mM LiCl) treated/RLU(10 omM LiCl) vehicle×control)100, % inhibition of Survivin reporter activity=(1−RLUtreated/RLU vehicle control)×100. Error bars indicate the mean±SE of 3 separate experiments. Selectivity (FIG. 2H) was calculated by IC50 value for Survivin-Hek-293/IC50 value for STF 1.1.

[2] = biological target: T1, p300/γ-catenin interaction (Mus musculus, UniProt B2RWS6); experiment: Co-IP of bone marrow Sca-1posit cells from treated mice (anti-p300); format: in vivo; details: YH250 2 mg/kg subcutaneously, 24 hrs
T1 construct: bone marrow Sca-1posit cells were isolated with Anti-Sca-1 microbeads; from tissue; host or cells: bone marrow Sca-1 positive cells of female C57/Black mice dosed in vivo
Protocol: YH250 was used in this study. Female C57/Black mice were administrated with either DMSO (solvent control) or YH250 (2 mg/kg) subcutaneously. 24 hrs later, bone marrow Sca-1posit cells were isolated with Anti-Sca-1 microbeads (Miltenyi Biotec, Cat#130-092-529) for co-immunoprecipitation (FIG. 4A). Cells were then lysed and incubated with either anti-CBP (A22) or anti-p300 (C20) antibodies. Then, the immunoprecipitation complex were electrophoresed and detected with antibodies to either β-catenin or γ-catenin. […] This confirms that YH250 directly disrupts the p300/catenin interaction thereby enhancing the CBP/catenin interaction in HSPCs.

[3] = tested on: mouse bone marrow cells; experiment: CFU-S12 assay (treated cells injected to lethally irradiated mice); format: in vivo; details: cells treated in vitro, 12 days after injection
Text: In CFU-S12 assay, cells treated with DMSO or YH250 were recovered from plate and injected to lethally irradiated mice (FIG. 8A), 12 days later, animals were euthanized to check spleen colony formation and spleen weight.

[4] = tested on: 7Gy irradiated animals; experiment: Peripheral blood count and body weight recovery after 7Gy radiation; format: in vivo
Protocol: YH250 was then tested for stimulating blood count recovery in irradiated animals. In this experiment, animals received 7Gy whole body radiation and then, either YH250 or DMSO was administrated 24 hours post radiation. Animal body weight and peripheral blood counts were measured to monitor hematopoietic recovery (FIGS. 20A-20B). […] It is worth noting that it is a full lineage blood cell count recovery, including white blood cell (lymphocyte, monocyte and neutrophil), red blood cell and platelet (FIG. 20C). The neutrophil and platelet recovery is most significant.

[5] = tested on: lethally irradiated animals; experiment: Survival after lethal dose whole body radiation; format: in vivo, mouse
Protocol: We next tested if YH250 can rescue animals from lethal dose radiation. […] However, YH250 (2 mg/Kg) administrated 24 hours post radiation rescued 50% of animals (Kaplan-Meier analysis p=0.0002).
With 8.5Gy radiation, all the animals (100%) survived in YH250 treatment group while there are only 30% animals survived in DMSO treatment group (p=0.0016, FIG. 21C). […] In principle, to optimize radiation remediation therapy, it should be advantageous to first (a) symmetrically expand the remaining viable stem cell pool (either HSC or ISC), using a method to enhance symmetric non-differentiative proliferation, i.e., by blocking the p300/catenin interaction thereby enhancing CBP/catenin signaling and (b) subsequently induce the differentiation of the stem cell pool via asymmetric divisions to enhance tissue repair and regeneration as rapidly as possible using a CBP/catenin antagonist. We therefore decided to test sequential administration of the p300/catenin antagonist YH250, followed by subsequent administration of the CBP/catenin antagonist ICG-001. An additional potential therapeutic benefit utilizing a CBP/catenin antagonist would be protection against fibrosis, which is a common chronic complication associated with radiation damage. […] We thus treated mice with either vehicle, YH250 (single 2 mg/Kg s.c., injection at 24 h post irradiation), ICG-001 (single 50 mg/Kg s.c., injection at 24 h post irradiation) or the combination of YH250/ICG-001, with YH250 (2 mg/Kg) given 24 h post irradiation followed by ICG-001 (50 mg/Kg) injection for 5 consecutive days starting at 48 h post-irradiation. After irradiation and the corresponding treatments, no special care was provided. The life-span after irradiation was observed on a daily basis and recorded.

[6] = tested on: 5-FU treated mice; experiment: Recovery from repeated 5-FU administration; format: in vivo, mouse
Protocol: To test if p300/-catenin antagonists can also promote multi-dosing chemotherapeutic drug induced bone marrow inhibition, 4 rounds of 5-FU (two doses in each round) administration were given to CD45.2 female mice. 150 mg/kg of 5-FU was given to mice for the first three rounds and then 200 mg/kg for the last round (4th round). The second dose of 5-FU was 6 days apart from the first dose of 5-FU in each round. Either DMSO or YH250 (2 mg/kg) were given to animals 24 hours after the first dose of 5-FU in each round of 5-FU administration (FIG. 25A). Animal body weight, survival rate and blood count changes were monitored. […] After each round of 5-FU administration, animals were allowed to recover to normal blood count before next round of 5-FU administration. FIG. 25E depicts the blood count at nadir points after each round of 5-FU administration.

[7] = administered 24 hours post radiation
[8] = especially last three rounds of 5-FU

T1 sequence (B2RWS6 2-2412 limits assumed): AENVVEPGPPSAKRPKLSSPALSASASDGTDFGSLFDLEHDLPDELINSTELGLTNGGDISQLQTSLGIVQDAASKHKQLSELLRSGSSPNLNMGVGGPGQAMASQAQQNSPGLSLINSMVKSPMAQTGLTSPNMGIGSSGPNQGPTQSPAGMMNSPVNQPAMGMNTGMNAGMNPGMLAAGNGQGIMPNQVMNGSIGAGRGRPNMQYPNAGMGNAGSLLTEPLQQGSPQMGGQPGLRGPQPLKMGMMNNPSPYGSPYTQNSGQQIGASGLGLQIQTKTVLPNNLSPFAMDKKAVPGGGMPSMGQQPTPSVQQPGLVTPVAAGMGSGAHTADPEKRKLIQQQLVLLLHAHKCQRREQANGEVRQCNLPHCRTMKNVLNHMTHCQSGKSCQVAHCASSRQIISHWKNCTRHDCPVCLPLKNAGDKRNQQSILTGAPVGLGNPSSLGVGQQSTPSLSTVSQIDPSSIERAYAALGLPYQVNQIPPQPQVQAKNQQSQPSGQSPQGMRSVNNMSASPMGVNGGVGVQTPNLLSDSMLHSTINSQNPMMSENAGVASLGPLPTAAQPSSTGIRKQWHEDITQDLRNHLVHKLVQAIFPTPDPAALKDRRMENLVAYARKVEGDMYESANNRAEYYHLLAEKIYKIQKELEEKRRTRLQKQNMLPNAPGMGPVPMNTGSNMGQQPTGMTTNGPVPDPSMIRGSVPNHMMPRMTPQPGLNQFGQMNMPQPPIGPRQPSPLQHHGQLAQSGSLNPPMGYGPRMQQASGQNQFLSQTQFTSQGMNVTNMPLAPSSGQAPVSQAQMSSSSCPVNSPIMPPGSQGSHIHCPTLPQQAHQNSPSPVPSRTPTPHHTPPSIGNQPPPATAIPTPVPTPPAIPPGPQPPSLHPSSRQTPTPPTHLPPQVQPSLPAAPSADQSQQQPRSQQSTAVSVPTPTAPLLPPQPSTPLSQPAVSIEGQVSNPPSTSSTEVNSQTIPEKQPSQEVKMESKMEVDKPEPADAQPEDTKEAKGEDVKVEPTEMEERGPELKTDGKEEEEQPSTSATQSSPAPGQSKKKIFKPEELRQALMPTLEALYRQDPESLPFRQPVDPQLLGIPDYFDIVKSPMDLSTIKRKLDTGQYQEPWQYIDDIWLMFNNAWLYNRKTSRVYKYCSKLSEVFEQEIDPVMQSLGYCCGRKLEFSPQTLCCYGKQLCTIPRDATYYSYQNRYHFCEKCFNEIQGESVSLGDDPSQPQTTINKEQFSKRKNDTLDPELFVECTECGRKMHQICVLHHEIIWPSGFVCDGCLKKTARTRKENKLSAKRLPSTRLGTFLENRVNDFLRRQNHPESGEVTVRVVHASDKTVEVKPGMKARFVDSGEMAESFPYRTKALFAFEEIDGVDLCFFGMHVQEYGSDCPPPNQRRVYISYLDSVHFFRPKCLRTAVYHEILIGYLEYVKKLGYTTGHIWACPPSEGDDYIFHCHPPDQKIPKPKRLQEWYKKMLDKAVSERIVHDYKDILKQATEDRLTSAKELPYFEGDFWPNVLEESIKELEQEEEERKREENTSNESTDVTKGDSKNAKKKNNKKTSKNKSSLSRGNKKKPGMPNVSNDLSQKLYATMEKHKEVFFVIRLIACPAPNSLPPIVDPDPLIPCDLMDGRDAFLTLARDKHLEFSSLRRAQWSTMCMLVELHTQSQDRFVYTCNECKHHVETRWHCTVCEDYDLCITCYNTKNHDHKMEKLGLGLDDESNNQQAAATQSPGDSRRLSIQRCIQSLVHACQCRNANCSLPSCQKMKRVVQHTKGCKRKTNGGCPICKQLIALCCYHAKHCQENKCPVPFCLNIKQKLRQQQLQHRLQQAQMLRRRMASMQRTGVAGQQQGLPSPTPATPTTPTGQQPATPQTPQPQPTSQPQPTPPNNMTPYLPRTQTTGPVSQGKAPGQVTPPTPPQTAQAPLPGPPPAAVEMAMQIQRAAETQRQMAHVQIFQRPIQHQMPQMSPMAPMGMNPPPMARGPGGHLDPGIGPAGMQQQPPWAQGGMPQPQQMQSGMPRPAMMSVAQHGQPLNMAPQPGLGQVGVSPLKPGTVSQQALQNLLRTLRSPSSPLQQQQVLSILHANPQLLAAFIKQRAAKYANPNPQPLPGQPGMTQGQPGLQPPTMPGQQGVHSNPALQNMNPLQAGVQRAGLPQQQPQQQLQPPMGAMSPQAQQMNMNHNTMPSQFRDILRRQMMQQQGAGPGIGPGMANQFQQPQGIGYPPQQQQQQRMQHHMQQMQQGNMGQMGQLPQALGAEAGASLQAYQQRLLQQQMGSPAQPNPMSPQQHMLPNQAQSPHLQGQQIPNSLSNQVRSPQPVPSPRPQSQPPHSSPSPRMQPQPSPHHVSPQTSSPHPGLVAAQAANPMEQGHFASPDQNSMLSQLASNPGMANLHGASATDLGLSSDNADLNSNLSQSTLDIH

SMILES: COc1cccc(CNC(=O)N2C3CN(Cc4cc(Cl)cc(Cl)c4N(C)C)C(=O)[C@H](Cc4ccc(O)cc4)N3C(=O)CN2C)c1OC (some centres unmarked) [YH250]
- IC50 [1]: > 20 µM
- p300/γ-catenin interaction [2]: inhibits p300/γ-catenin interaction
- spleen colonies (CFU-S12) [3]: larger colonies on spleen
- spleen weight (CFU-S12) [3]: heavier spleen
- blood cell count at nadir points vs DMSO [4]: significantly higher
- blood count recovery (full lineage) [4, 7]: Accelerated blood count recovery
- body weight [4, 7]: very little weight drop
- body weight vs DMSO ([5]; 8.5Gy): less body weight drop
- animals survived ([5]; 8.5Gy (LD70/60), 2 mg/Kg 24 hours post radiation, DMSO 30%, p=0.0016): 100%
- body weight ([5]; 9Gy): less body weight drop
- animals rescued (survival) ([5]; 9Gy (LD100/60), 2 mg/Kg 24 hours post radiation, p=0.0002): 50%
- life-span after irradiation vs control group ([5]; YH250 2 mg/Kg s.c. 24 h post irradiation, combination followed by ICG-001 50 mg/Kg 5 consecutive days from 48 h): significantly extended life-spans
- RBC at nadir points ([6]; 4 rounds of 5-FU): no significant effect on RBC
- survival ([6]; 5-FU 200 mg/kg (4th round), 60% died in DMSO group, p=0.04): all animals survived
- WBC at nadir point [6, 8]: significantly higher
- platelet at nadir point [6, 8]: significantly higher
- body weight ([6]; from second round of 5-FU administration, 2 mg/kg each round): less weight drop
